According to patent publication US7722906B2, “Polyunsaturated fatty acid fractions of Nigella sativa L. seeds” (priority 2004, dated 2010):

Test system: writhing induced by parabenzoquinone
Test: Analgesic activity, writhing method
Assay type: in vivo, mice
Conditions: 5.0 mg/100 g.b.w.
Procedure: The analgesic activity of the Nigella sativa L. polyunsaturated fatty acid fraction was studied using the writhing method described by Okun et al. (1963). Thirty mature mice of both sexes weighing from 20 to 25 gm were divided into 3 groups of 10 mice each. The first group served as a control and the second group served as a standard (treated with paracetamol in a dose of 5 mg/100 gm body weight). The third group was injected subcutaneously with the Nigella sativa L. polyunsaturated fatty acid fraction. […] […] Animals devoid of writhing in each group were recorded and the analgesic potencies of paracetamol and the Nigella sativa L. polyunsaturated fatty acid fraction were determined as percent protection against writhing.

With CC(=O)Nc1ccc(O)cc1 [Paracetamol, paracetamol] the “% Protection” value (30 minutes) was 100%, the “% Protection” value (60 minutes) was 60% and the “% Protection” value (90 minutes) was 40%. The “% Protection” value (120 minutes) was 20%.
